Measurements reported in PMC9927457 (Microbiology Spectrum, 2023).
Converted amounts (≈) assume the structure as drawn. Read-outs that look alike come from different tables or passages of the source.

What was measured:
[1] = tested on: M. tuberculosis strain under expressing LepB (LepB-UE); assay: microbe, parasite or virus in culture; format: cell-based, Mycobacterium tuberculosis
HepG2 cells = assay: HepG2 cytotoxicity; format: cell-based, human; settings: 3 days exposure, CellTiter-Glo
Experimental: HepG2 cells were used to measure eukaryotic cytotoxicity. Viability of HepG2 was measured using CellTiter-Glo reagent (Promega) after 3 days of exposure to compounds. […] Staurosporine controls (maximum inhibition) and a staurosporine dose response were included on every plate.

[2] = tested on: M. tuberculosis wild-type strain; assay: MIC against wild-type M. tuberculosis; format: cell-based, Mycobacterium tuberculosis; settings: concentration required to inhibit growth by 90%, 5 days culture; for MIC: read-out: MIC Wild type
Caco-2 cells = assay: Caco-2 permeability
Experimental: (§1) Permeability was measured across Caco-2 cells cultured in a Millipore 96-well Caco-2 plate. For apical to basolateral (A→B) permeability, 10 μM compound was added to the apical (A) side and amount of permeation was determined on the basolateral (B) side; for basolateral to apical (B→A) permeability, the compound was added to the B side and the amount of permeation was determine on the A side. Time points were taken at 2 h.
Table S2. Permeability. Permeability was measured using Caco-2 cells after 1 and 2 hours incubation with compound. (A→B) is Apical to Basolateral; (B→A) is Basolateral to Apical. Data is expressed as permeability (10-6 cm s-1). dQ/dt is rate of permeation, C0 is initial concentration […]
Article Duration direction value replicate replicate mean recovery

[3] = Plasma protein binding (Rapid Equilibrium Dialysis); format: in vitro ADME, human; settings: human plasma
Experimental: Molecule fraction fraction Post-Assay
Table S5. Plasma protein binding
Protein binding was measured in human plasma using Rapid Equilibrium Dialysis (RED) devices (Pierce) according to the manufacturers’ instructions; 5 µM compounds in plasma were dialysed against PBS for 4 h at 37C. Compounds were detected by LC-MS/MS in plasma and PBS

[4] = Microsomal metabolic stability; settings: human, microsomes, pH 7.4
Experimental: as §1
Table S3. Metabolic stability. Metabolic stability was measured using human liver microsomes. […]

[5] = biological target: SPase activity in M. tuberculosis H37Rv cell membrane fractions (Mycobacterium tuberculosis, UniProt P9WKA1); assay: Inhibition of secretion (SPase activity) in membrane fractions; format: biochemical; settings: fluorogenic peptide substrate 2 μM; 4 h, 37 °C
SPase activity in M. tuberculosis H37Rv cell membrane fractions, sequence (P9WKA1 whole entry): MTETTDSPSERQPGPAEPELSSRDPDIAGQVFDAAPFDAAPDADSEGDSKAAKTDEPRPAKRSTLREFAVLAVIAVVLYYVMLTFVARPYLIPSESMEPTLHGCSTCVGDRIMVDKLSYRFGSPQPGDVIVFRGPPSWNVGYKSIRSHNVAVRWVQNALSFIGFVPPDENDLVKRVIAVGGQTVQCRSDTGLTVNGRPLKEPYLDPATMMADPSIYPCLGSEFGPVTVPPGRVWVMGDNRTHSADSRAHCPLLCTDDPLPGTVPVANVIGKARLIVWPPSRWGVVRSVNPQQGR

RAW 264.7 macrophages = assay: Cytotoxicity against infected macrophages; format: cell-based, murine; settings: Mus musculus; infected RAW264:7 cells, 72 h; read-out: IC50 Macrophage
Experimental: Murine RAW 264.7 macrophages (ATCC TIB-71) were infected with M. tuberculosis DsRed (DREAM8) ([29]) as described at a multiplicity of infection of 1 for 24 h, washed, harvested, and dispensed into 384-well plates ([30]). Infected macrophages were exposed to compounds for 72 h; cell nuclei were stained with SYBR green I. Plates were imaged with an ImageXpress Micro High Content Screening System (Molecular Devices) using a ×4 objective and FITC and Texas Red channels. MetaXpress was used to determine the integrated intensity of bacteria or macrophages. […] Isoniazid and staurosporine controls (maximum inhibition) and dose responses were included on every plate.

[6] = Mycobacterium tuberculosis, 120 h

Molecule	MIC [1, 6]	IC50 (HepG2 cells; Homo sapiens, HepG2, 72 h)	MIC [2, 6]	other results
1-butyl-3-(5-methoxybenzo[d]oxazol-2-yl)thiourea [Molecule 35]	–	–	–	MIC [1]: >200 µM; IC50 (HepG2 cells): > 100 µM; MIC [2]: >200 µM
CC(C)NC[C@H](O)COc1cccc2ccccc12 (racemic) [Propanolol, propanolol, reference compound]	–	–	–	Efflux ratio (Re) (Caco-2 cells; Papp(B→A)/Papp(A→B)): 1.5; Mean A→B Papp (Caco-2 cells; apical to basolateral, 10 μM compound, 2 h): 20 10^−6 cm/s; Mean B→A Papp (Caco-2 cells; basolateral to apical, 10 μM compound, 2 h): 30 10^−6 cm/s; Mean plasma fraction Unbound Fuplasma ([3]; 5 µM, dialysed against PBS 4 h at 37C): 28.00%; Post-Assay Recovery ([3]; RED device): 89.4%
COc1ccc2c(c1)[C@]13CCCC[C@@H]1[C@H](C2)N(C)CC3 [Dextromethorphan, dextromethorphan, reference compound]	–	–	–	half-life at 1 µM [4]: 1.97 h; microsomal CLint at 1 µM [4]: 19.5 µL/min/mg
CCCCCC(=O)Nc1nc2ccccc2s1 [Molecule 2]	> 200 µM	74 ± 13 µM	> 200 µM	–
Cc1ccc(C(=O)Nc2nc3ccccc3s2)cc1 [Molecule 3]	140 µM (≈ 37.6 µg/mL)	> 100 µM	> 200 µM	–
CCCCCCNc1nc2ccccc2s1 [Molecule 4]	< 100 µM	55 ± 8.5 µM	125 µM (≈ 29.3 µg/mL)	MIC LepB-UE [1]: 82 ± 16 µM (≈ 19.2 µg/mL); MIC Wild type [2]: 125 ± 13 µM (≈ 29.3 µg/mL)
CCCCNC(=O)Nc1nc2ccccc2s1 [Molecule 5]	< 100 µM	39 ± 25 µM	> 200 µM	MIC LepB-UE [1]: 61 ± 9.1 µM (≈ 15.2 µg/mL)
S=C(NCc1ccccc1)Nc1nc2ccccc2s1 [Molecule 6]	–	6 ± 0.1 µM	> 200 µM	–
COc1ccc(NC(=S)Nc2nc3ccccc3s2)cc1 [Molecule 7]	> 200 µM	> 100 µM	> 200 µM	–
COc1ccc(NC(=S)Nc2nccs2)cc1 [Molecule 8]	–	21 ± 19 µM	27 µM (≈ 7.16 µg/mL)	IC50 [5]: > 200 µM; MIC Wild type [2]: 27 ± 17 µM (≈ 7.16 µg/mL)
CCCCNC(=S)Nc1ccccn1 [Molecule 9]	100 µM (≈ 20.9 µg/mL)	65 ± 50 µM	> 200 µM	–
c1ccc2scnc2c1 [Molecule 10]	> 100 µM	7.6 ± 6.2 µM	> 200 µM	–
CCCCNC(=S)Nc1nc2ccccc2[nH]1 [Molecule 11, 1-(benzo[d]imidazol-2-yl)-3-butylthiourea]	29 ± 2.1 µM (≈ 7.2 µg/mL)	6 ± 0.1 µM	120 ± 10 µM (≈ 29.8 µg/mL)	IC50 [5]: > 200 µM
CCCCNC(=S)Nc1nc2c(Cl)cccc2s1 [Molecule 13, 1-butyl-3-(4-chlorobenzo[d]thiazol-2-yl)thiourea]	7.9 µM (≈ 2.37 µg/mL)	> 100 µM	> 200 µM	MIC LepB-UE [1]: 7.9 ± 0.6 µM (≈ 2.37 µg/mL); IC50 (RAW 264.7 macrophages): 12 ± 2.8 µM; IC50 [5]: > 200 µM
CCCCNC(=S)NC1=NCCS1 [Molecule 15, 1-butyl-3-(4,5-dihydrothiazol-2-yl)thiourea]	160 µM (≈ 34.8 µg/mL)	75 µM	170 µM (≈ 37 µg/mL)	MIC LepB-UE [1]: 160 ± 1.0 µM (≈ 34.8 µg/mL); IC50 (HepG2 cells): > 100 µM; MIC Wild type [2]: 170 ± 1.0 µM (≈ 37 µg/mL)
